Measurements published in patent publication US20260347330A1, “N-METHYL-D-ASPARTATE RECEPTOR (NMDAR) ANTAGONISTS AND USES THEREOF” (Bexson Biomedical, Inc., priority 2022, published 2026).
Like-named read-outs stand apart in the source and are kept apart here.

How the values were obtained:
NMDAR [1] = test: Homologous binding experiments with MK-801; conditions: rat forebrain
Description: Rat forebrains from 7-8 week old Sprague-Dawley rats (BioChemed, USA) were homogenized in a buffer containing 10 mM HEPES and 1 mM EDTA (pH 7.4) using a mechanical homogenizer (Janke-Kunkel Ultra-Turrax T25). A 10 mL volume was used per brain for all steps involving suspension of the brain homogenate tissue. The brain homogenate was then centrifuged (15 minutes at 20,000 RPM and 4 ° C). The supernatant was carefully poured off and the pellet was resuspended in fresh 10 mM HEPES and 1 mM EDTA containing buffer. This process was repeated 5 times. Following the 5th centrifugation, the buffer was replaced with a buffer containing 10 mM HEPES (pH 7.4). […] Protein concentration of the homogenate was determined by utilizing the Bradford method using Coomassie protein assay reagent (Sigma, USA) with Bovine Serum albumin (Sigma, USA) as a standard.
At the time of the experiment, the homogenate was diluted to a final concentration of […] in 10 mM HEPES buffer, 1 mM glutamate, and 0.1 mM glycine (pH 7.4) and combined with 1 nM (+)-[3H]-MK-801 (Perkin Elmer NET972250UC), unlabeled competitor compounds at varying concentrations, or 30 uM MK-801 to determine non-specific binding, in a total volume of 1 mL in a 96 well plate. […] IC50 value estimates were determined in GraphPad Prism 9.3.1 using non-linear regression (single site fit) with log-concentration plotted against percent specific binding. […]

NMDAR [2] = test: NMDA receptor [3H]-MK-801 competition radioligand binding in rat forebrain; conditions: [3H]-MK-801 1 nM competition, 1 mM glutamate, 0.1 mM glycine, pH 7.4, 2 h ambient, N = 1-4
Description: Rat forebrains from 7-8 week old Sprague-Dawley rats (BioChemed, USA) were homogenized in a buffer containing 10 mM HEPES and 1 mM EDTA (pH 7.4) using a mechanical homogenizer (Janke-Kunkel Ultra-Turrax T25). A 10 mL volume was used per brain for all steps involving suspension of the brain homogenate tissue. The brain homogenate was then centrifuged (15 minutes at 20,000 RPM and 4 ° C). The supernatant was carefully poured off and the pellet was resuspended in fresh 10 mM HEPES and 1 mM EDTA containing buffer. This process was repeated 5 times. Following the 5th centrifugation, the buffer was replaced with a buffer containing 10 mM HEPES (pH 7.4). The homogenate was then incubated in a water bath at 37 ° C in the dark (covered with foil). Centrifugation was then repeated 3 additional times and after resuspending in the HEPES buffer, the final homogenate was aliquoted and stored at −80 ° C until use. Protein concentration of the homogenate was determined by utilizing the Bradford method using Coomassie protein assay reagent (Sigma, USA) with Bovine Serum albumin (Sigma, USA) as a standard.
At the time of the experiment, the homogenate was diluted to a final concentration of […] in 10 mM HEPES buffer, 1 mM glutamate, and 0.1 mM glycine (pH 7.4) and combined with 1 nM (+)-[3H]-MK-801 (Perkin Elmer NET972250UC), unlabeled competitor compounds at varying concentrations, or 30 uM MK-801 to determine non-specific binding, in a total volume of 1 mL in a 96 well plate. The protein homogenate is always added to the wells last. The plates were covered with aluminum foil, and placed on a mechanical shaker (250 RPM) for 2 h at ambient temperature ([…]). After 2 h, the homogenate was collected by vacuum filtration using a Unifilter-96 Cell Harvester (Perkin Elmer) over presoaked UniFilter-96 GF/C P Microplates (Perkin Elmer) and filters were washed with room temperature 10 mM HEPES buffer (pH 7.4) (3×1 mL). The filter plates were dried overnight in a fume hood. The next day, the bound tritium was measured via liquid scintillation counting with […] MicroScint-O (Perkin Elmer) added per well, using a MicroBeta2 Plate Reader with 6-detectors scintillation counter (Perkin Elmer) at 55% efficiency. IC50 value estimates were determined in GraphPad Prism 9.3.1 using non-linear regression (single site fit) with log-concentration plotted against percent specific binding. Ki values were calculated using the equation of Cheng and Prusoff. […] Experiments were performed in duplicate. N=1-4 per compound.

hSERT = target: T1, hSERT (Homo sapiens, UniProt P31645); test: SERT [3H]-citalopram competition radioligand binding, hSERT expressing HEK293 cell membranes
T1 construct: no vendor name is printed for this cell line) RBHSTM-K; host or cells: HEK293
T1 sequence (P31645 whole entry): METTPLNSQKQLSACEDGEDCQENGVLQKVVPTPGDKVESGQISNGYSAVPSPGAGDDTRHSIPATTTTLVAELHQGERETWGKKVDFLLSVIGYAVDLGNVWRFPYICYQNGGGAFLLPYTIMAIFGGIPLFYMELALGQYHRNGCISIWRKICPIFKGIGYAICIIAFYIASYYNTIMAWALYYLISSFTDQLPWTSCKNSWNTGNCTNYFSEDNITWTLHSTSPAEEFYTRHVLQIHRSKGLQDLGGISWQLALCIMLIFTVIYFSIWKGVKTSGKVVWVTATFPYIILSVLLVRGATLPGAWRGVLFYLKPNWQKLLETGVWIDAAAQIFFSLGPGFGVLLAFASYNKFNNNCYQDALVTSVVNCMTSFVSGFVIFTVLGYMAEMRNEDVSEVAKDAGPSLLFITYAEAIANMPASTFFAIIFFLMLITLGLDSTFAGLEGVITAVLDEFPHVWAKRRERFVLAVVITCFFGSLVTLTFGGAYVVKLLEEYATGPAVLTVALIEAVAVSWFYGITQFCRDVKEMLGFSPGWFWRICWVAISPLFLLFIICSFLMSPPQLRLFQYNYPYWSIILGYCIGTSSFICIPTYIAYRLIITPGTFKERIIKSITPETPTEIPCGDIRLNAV
Description: Valiscreen Serotonin Transporter (SERT) (Human) Cell Line (HEK293 host cells, Product No: RBHSTM-K) grown in DMEM/F12 media with 10% FBS, 0.1 mg/ml Geneticin, 1% GlutaMAX, and 1% Penicillin-Streptomycin added were used to prepare SERT membrane fractions. Cells were grown in 150 mm dishes and harvested between 70-90% confluency, passages 5-20. Cells were detached using a buffer containing 1 mM HEPES and 2 mM EDTA (pH 7.4). After detachment, the cells were homogenized using a handheld homogenizer, and the lysate was centrifuged (30 minutes at 30,000×G) at 4 ° C The resulting pellet was resuspended in storage buffer containing 20 mM HEPES, 10 mM MgCl2, 0.1 mM EDTA, and 10% sucrose at pH 7.4. Protein concentration was determined via the Bradford method using Coomassie protein assay reagent (Sigma, USA) with Bovine Serum albumin (Sigma, USA) as standard.
Buffer containing 10 mM HEPES, 120 mM NaCl, and 5 mM KCl (pH 7.4) was added to SERT membranes to dilute to a final protein concentration of 5 µg/mL per well. Additionally, 0.5 nM [3H]-Citalopram (Perkin Elmer NET1039250UC) was added, along with unlabeled competitors at various concentrations or […] citalopram for nonspecific binding controls, bringing the total volume to 1 ml in a 96 well plate. SERT membranes were always added last to each well. The plates were covered from light with aluminum foil and incubated at ambient temperature ([…]) and placed on a mechanical shaker (250RPM) for 2 h. After 2 h, SERT protein was captured via vacuum filtration using a Unifilter-96 Cell Harvester (Perkin Elmer) over presoaked UniFilter-96 GF/C P Microplates (Perkin Elmer) and filters were washed with room temperature 10 mM HEPES, 120 mM NaCl, and 5 mM KCl buffer (pH 7.4) (3×1 mL). The filter plates were dried overnight in a fume hood. The next day, the SERT bound tritium was measured via liquid scintillation counting with MicroScint-O (Perkin Elmer), using a MicroBeta2 Plate Reader with 6-detectors scintillation counter (Perkin Elmer) at 55% efficiency. IC50 value estimates were determined in GraphPad Prism 9.3.1 using non-linear regression (single site fit) with log-concentration plotted against percent specific binding. […] For each experiments compounds were run in duplicate. N=1-3 repeats per compound.

[3] = target: T2, human Dopamine Transporter (Homo sapiens, UniProt Q01959); test: Human dopamine reuptake transporter (DAT) inhibition functional study, ASP+ uptake in CHO cells; type: cell-based; conditions: at 10,000 nM, 10 μM ASP+, 1 h, CHO cells stably expressing human DAT
T2 construct: host or cells: CHO
T2 sequence (Q01959 whole entry): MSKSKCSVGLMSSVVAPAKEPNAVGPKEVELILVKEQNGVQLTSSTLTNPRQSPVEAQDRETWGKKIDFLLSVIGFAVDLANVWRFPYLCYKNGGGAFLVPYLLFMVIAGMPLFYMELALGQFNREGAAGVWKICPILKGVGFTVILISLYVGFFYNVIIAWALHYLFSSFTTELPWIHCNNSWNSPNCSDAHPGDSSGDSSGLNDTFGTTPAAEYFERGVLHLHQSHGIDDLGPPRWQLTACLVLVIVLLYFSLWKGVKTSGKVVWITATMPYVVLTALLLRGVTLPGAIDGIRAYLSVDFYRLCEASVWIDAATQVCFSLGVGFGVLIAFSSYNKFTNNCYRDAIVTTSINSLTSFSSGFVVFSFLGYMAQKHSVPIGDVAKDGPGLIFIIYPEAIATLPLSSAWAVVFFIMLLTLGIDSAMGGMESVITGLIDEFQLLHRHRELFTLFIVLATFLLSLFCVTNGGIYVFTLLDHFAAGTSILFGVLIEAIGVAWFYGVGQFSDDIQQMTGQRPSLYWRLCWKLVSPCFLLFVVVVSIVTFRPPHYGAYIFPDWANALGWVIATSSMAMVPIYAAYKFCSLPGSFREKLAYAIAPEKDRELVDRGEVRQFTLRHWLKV
Description: CHO cells stably expressing human Dopamine Transporter Protein (Valiscreen® Perkin Elmer RBHDATM-K) were cultured in 150 mm Tissue Culture dishes (Cell Treat 229651) at 37 ° C and 5% CO2. Ham's F-12 Nutrient Mix (Gibco, USA) was supplemented with 10% dialyzed FBS (Gibco, USA), 100 µg/ml Geneticin (Gibco, USA), and 100 units/ml Penicillin and Streptomycin (Gibco, USA) as the culture media. Cells were maintained on a consistent splitting and assay schedule and utilized until passage 30 (no change in control experiments were observed up to this point).
Cells were detached from their growth dishes using Trypsin-EDTA (0.25%) (Gibco, USA) at 70-80% confluency. The cells were counted and diluted in culture media to a density of 300,000 cells/mL. 200 µl of this mixture was added to each well of a clear bottom, black-walled 96 well plate (Coming 3603, USA). Plates were incubated in the laminar flow hood for one hour prior to being placed in the cell culture incubator in order to encourage even cell distribution across the entire well surface.
The next day, Krebs-Ringer HEPES (KRH) Buffer pH 7.4 was prepared (10 mM HEPES, 130 mM NaCl, 1.3 mM KCl, 2.2 mM CaCl2, 1.2 mM MgSO4, 1.2 mM KH2PO4) and titrated with 6N NaOH. This buffer was stored in a 4 ° C refrigerator for up to 4 days (after which it was discarded). Additionally, a solution containing KRH buffer and 330 µM Trypan Blue (Sigma T6146-25G), a solution of 20 mM ASP+(MedChem Express, NJ, USA) dissolved in DMSO, were both prepared. The 20 mM DMSO stock of ASP+ was diluted to a working concentration of 40 µM in KRH buffer. DMSO solutions of 40 mM GBR-12935 dihydrochloride (MedChem Express, NJ, USA) and 40 mM test compounds were also prepared. DMSO solutions of test compounds were then diluted to a range of […]-40 μM in KRH Buffer with 1% additional DMSO added to provide consistent DMSO concentration in all samples. […] The final DMSO concentration in each well was 0.3%. […] KRH buffer with DMSO “vehicle control” served as the total fluorescence control to represent the maximum amount of substrate uptake without DAT transporter inhibition.
At the time of assay, cell media was carefully removed from the wells via pipette aspiration. 100 μL of KRH buffer was then added to all wells. Both controls, non-specific and total fluorescence stock solutions were then added to the plate (50 µL of either 400 µM GBR-12935 or KRH DMSO buffer respectively). Additionally, GBR-12935 and test compounds were added to the plate ([…] for each sample). The 10,000 nM concentration of test compound was run in triplicate wells. Next, […] ASP+(final concentration of 10 μM) was added to each well initiating the experiment. Cells were placed in the cell culture incubator for one hour, at which point 20 µL of 330 µM Trypan Blue was added to each well to quench extracellular fluorescence. The cells were then placed in the microplate reader (BioTek Synergy Neo 2), using Gen5 Ver 3.11 software. The reader was preheated to 37 ° C and following a brief orbital shake, intracellular fluorescence was measured using a fluorescence intensity reading. Intracellular ASP+ was excited at 430 nm and emission read at 510 nm via a bottom read using the extended gain settings and high lamp energy setting.

[4] = 0.5 nM [3H]-citalopram competition, hSERT HEK293 membranes, pH 7.4, 2 h ambient, N = 1, read-out: SERT pKi (converted)

C[C@]12N[C@H](Cc3ccccc31)c1ccccc12 [MK-801]
Kd (NMDAR [1]): 0.00167 µM

CCNC(C)(c1ccccc1)C1CCCC1 (stereo not shown) [Compound 16, 1-cyclopentyl-N-ethyl-1-phenylethan-1-amine]
NMDAR binding affinity pKi (mean ± SEM) (NMDAR [2]): 6.93 ± 0.073 | Ki (hSERT; [4]): 1.12 µM | inhibition at 10 µM [3]: 16%

C=CCC(N)(c1ccccc1)C1CCCC1 (stereo not shown) [Compound 6, 1-cyclopentyl-1-phenylbut-3-en-1-amine]
NMDAR binding affinity pKi (mean ± SEM) (NMDAR [2]): 5.89 ± 0.072 | Ki (hSERT): 3.16 µM | inhibition at 10 µM [3]: 23.1%

CCC(C)NC(C)(c1ccccc1)C1CCCC1 (stereo not shown) [Compound 20, N-(1-cyclopentyl-1-phenylethyl)butan-2-amine]
NMDAR binding affinity pKi (mean ± SEM) (NMDAR [2]): 7.35 ± 0.075 | Ki (hSERT): 2.45 µM | inhibition at 10 µM [3]: 56.7%

CNC(C)(c1ccccc1)C1CCCC1 (stereo not shown) [Compound 15, 1-cyclopentyl-N-methyl-1-phenylethan-1-amine]
NMDAR binding affinity pKi (mean ± SEM) (NMDAR [2]): 6.56 ± 0.064 | Ki (hSERT): 0.501 µM | inhibition at 10 µM [3]: 18.2%

NC(c1ccccc1)(C1CCCC1)C1CC1 (stereo not shown) [Compound 5, Cyclopentyl(cyclopropyl)(phenyl)methanamine]
NMDAR binding affinity pKi (mean ± SEM) (NMDAR [2]): 6.23 ± 0.046 | IC50 (hSERT): > 10 µM | inhibition at 10 µM [3]: 1.3%

NC(c1ccccc1Cl)C1CCCC1 (stereo not shown) [Compound 29, (2-chlorophenyl)(cyclopentyl)methanamine]
NMDAR binding affinity pKi (mean ± SEM) (NMDAR [2]): 5.47 ± 0.030 | IC50 (hSERT): > 10 µM | inhibition at 10 µM [3]: 10.3%

CCC(N)(c1ccccc1)C1CCCC1 (stereo not shown) [Compound 4, 1-cyclopentyl-1-phenylpropan-1-amine]
NMDAR binding affinity pKi (mean ± SEM) (NMDAR [2]): 6.64 ± 0.101 | IC50 (hSERT): > 10 µM | inhibition at 10 µM [3]: 24.3%

CC(C)NC(C)(c1ccccc1)C1CCCC1 (stereo not shown) [Compound 19, N-(1-cyclopentyl-1-phenylethyl)propan-2-amine]
NMDAR binding affinity pKi (mean ± SEM) (NMDAR [2]): 7.34 ± 0.041 | Ki (hSERT; [4]): 0.151 µM | inhibition at 10 µM [3]: 39.2%

CC(N)(c1ccccc1)C1CCCCC1 (stereo not shown) [Compound 11, 1-cyclohexyl-1-phenylethan-1-amine]
NMDAR binding affinity pKi (mean ± SEM) (NMDAR [2]): 6.09 ± 0.120 | IC50 (hSERT): > 10 µM | inhibition at 10 µM [3]: 11.7%

CC(N)(c1ccccc1)C1CCCC1 (stereo not shown) [Compound 3, 1-cyclopentyl-1-phenylethan-1-amine]
NMDAR binding affinity pKi (mean ± SEM) (NMDAR [2]): 7.11 ± 0.041 | IC50 (hSERT): > 10 µM | inhibition at 10 µM [3]: 16.8%

CC(c1ccccc1)(C1CCCCC1)N1CCCCC1 (stereo not shown) [Compound 23, 1-(1-cyclohexyl-1-phenylethyl)piperidine]
NMDAR binding affinity pKi (mean ± SEM) (NMDAR [2]): 5.52 ± .118 | Ki (hSERT; [4]): 2.63 µM | inhibition at 10 µM [3]: 71.6%

NC(CC1CCC1)(c1ccccc1)C1CCCC1 (stereo not shown) [Compound 9, 2-cyclobutyl-1-cyclopentyl-1-phenylethan-1-amine]
NMDAR binding affinity pKi (mean ± SEM) (NMDAR [2]): 5.80 ± 0.095 | IC50 (hSERT): > 10 µM | inhibition at 10 µM [3]: -4%
